The subject of data set [1] is LoVo colorectal cancer cell line. The data set is described as follows: LoVo growth inhibition, ceralasertib alone or with carboplatin. In kind it is cell-based, human. Conditions: Homo sapiens, LoVo, read-out: GI50 (50% growth inhibition).
Data set [2] deals with patients. The note with it: cited from earlier work.

Read-outs that look alike come from different tables or passages of the source.

The source of these data is PMC9401487 (Clinical Cancer Research, 2021).

`CNCc1ccc(-c2cc(-c3nc(-c4ccc(S(=O)(=O)C(C)C)cc4)cnc3N)on2)cc1` [berzosertib]: in data set [1], the GI50 came out at 90 nM. Also, the Tolerability result in data set [2] (90 mg/m^2 + carboplatin AUC5) is recorded as “tolerated”; in data set [2] (240 mg/m^2 days 1 and 8 every 21 days + carboplatin AUC5 day 1), “not tolerated”. The “Patients with grade 3/4 neutropenia” value in data set [2] (240 mg/m^2 + carboplatin AUC5, 3 patients) is on record as 3 patients.
